Assay results taken from the NIST ThermoML archive (doi:10.1016/j.jct.2016.07.005).
Numbers after ± are expanded uncertainties.

Experiments:
[1] = xn = mol fraction of the nth substance listed; conditions: 100 kPa, Liquid, x2 = 0; for viscosity: Concentric cylinders viscometry; for mass density: Vibrating tube method
[2] = refractive index (Na D-line) (dimensionless); xn = mol fraction of the nth substance listed; conditions: 100 kPa, Liquid, Standard Abbe refractometry, x2 = 0
[3] = 100 kPa, Liquid; for viscosity: Concentric cylinders viscometry; for mass density: Vibrating tube method
[4] = refractive index (Na D-line) (dimensionless); conditions: 100 kPa, Liquid, Standard Abbe refractometry

## OCCCO [propan-1,3-diol] + CN1CCC[C@H]1c1cccnc1
[1]; 293.15 K
  viscosity: 52.31 ± 1.2 mPa·s
  mass density: 1053.03 ± 1.3 kg/m3
[1]; 298.15 K
  viscosity: 41.55 ± 0.94 mPa·s
  mass density: 1049.9 ± 1.3 kg/m3
[1]; 303.15 K
  viscosity: 33.22 ± 0.75 mPa·s
  mass density: 1046.77 ± 1.3 kg/m3
[1]; 308.15 K
  viscosity: 26.87 ± 0.61 mPa·s
  mass density: 1043.63 ± 1.3 kg/m3
[1]; 313.15 K
  viscosity: 21.85 ± 0.49 mPa·s
  mass density: 1040.49 ± 1.3 kg/m3
[1]; 318.15 K
  viscosity: 18.12 ± 0.41 mPa·s
  mass density: 1037.33 ± 1.3 kg/m3
[1]; 323.15 K
  viscosity: 15.21 ± 0.34 mPa·s
  mass density: 1034.16 ± 1.3 kg/m3
[2]; 293.15 K
  refractive index: 1.43918 ± 0.00053
[2]; 298.15 K
  refractive index: 1.43783 ± 0.00053
[2]; 303.15 K
  refractive index: 1.43648 ± 0.00053
[2]; 308.15 K
  refractive index: 1.43515 ± 0.00053
[2]; 313.15 K
  refractive index: 1.43382 ± 0.00053
[2]; 318.15 K
  refractive index: 1.4324 ± 0.00053
[2]; 323.15 K
  refractive index: 1.43101 ± 0.00053

## CCCCO [butan-1-ol]
[3]; 293.15 K
  viscosity: 2.914 ± 0.06 mPa·s
  mass density: 809.819 ± 1 kg/m3
[3]; 298.15 K
  viscosity: 2.564 ± 0.053 mPa·s
  mass density: 805.995 ± 1 kg/m3
[3]; 303.15 K
  viscosity: 2.258 ± 0.047 mPa·s
  mass density: 802.148 ± 1 kg/m3
[3]; 308.15 K
  viscosity: 1.994 ± 0.041 mPa·s
  mass density: 798.276 ± 1 kg/m3
[3]; 313.15 K
  viscosity: 1.777 ± 0.037 mPa·s
  mass density: 794.372 ± 1 kg/m3
[3]; 318.15 K
  viscosity: 1.589 ± 0.033 mPa·s
  mass density: 790.429 ± 1 kg/m3
[3]; 323.15 K
  viscosity: 1.372 ± 0.029 mPa·s
  mass density: 786.444 ± 1 kg/m3
[4]; 293.15 K
  refractive index: 1.39922 ± 0.00036
[4]; 298.15 K
  refractive index: 1.39719 ± 0.00036
[4]; 303.15 K
  refractive index: 1.39517 ± 0.00036
[4]; 308.15 K
  refractive index: 1.39311 ± 0.00036
[4]; 313.15 K
  refractive index: 1.39102 ± 0.00036
[4]; 318.15 K
  refractive index: 1.38896 ± 0.00036
[4]; 323.15 K
  refractive index: 1.38688 ± 0.00036

## CC(O)CO (centres undefined) [1,2-propanediol]
[3]; 293.15 K
  viscosity: 59.56 ± 1.2 mPa·s
  mass density: 1036.3 ± 1 kg/m3
[3]; 298.15 K
  viscosity: 44.14 ± 0.9 mPa·s
  mass density: 1032.62 ± 1 kg/m3
[3]; 303.15 K
  viscosity: 33.25 ± 0.68 mPa·s
  mass density: 1028.91 ± 1 kg/m3
[3]; 308.15 K
  viscosity: 25.5 ± 0.52 mPa·s
  mass density: 1025.16 ± 1 kg/m3
[3]; 313.15 K
  viscosity: 19.78 ± 0.4 mPa·s
  mass density: 1021.39 ± 1 kg/m3
[3]; 318.15 K
  viscosity: 15.76 ± 0.32 mPa·s
  mass density: 1017.57 ± 1 kg/m3
[3]; 323.15 K
  viscosity: 12.75 ± 0.26 mPa·s
  mass density: 1013.72 ± 1 kg/m3
[4]; 293.15 K
  refractive index: 1.43279 ± 0.00036
[4]; 298.15 K
  refractive index: 1.43111 ± 0.00036
[4]; 303.15 K
  refractive index: 1.42941 ± 0.00036
[4]; 308.15 K
  refractive index: 1.42773 ± 0.00036
[4]; 313.15 K
  refractive index: 1.42601 ± 0.00036
[4]; 318.15 K
  refractive index: 1.42429 ± 0.00036
[4]; 323.15 K
  refractive index: 1.42257 ± 0.00036

## CCC(C)O (centres undefined) [butan-2-ol] + CN1CCC[C@H]1c1cccnc1
[1]; 293.15 K
  viscosity: 3.76 ± 0.077 mPa·s
  mass density: 807.19 ± 1 kg/m3
[1]; 298.15 K
  viscosity: 3.093 ± 0.064 mPa·s
  mass density: 803.049 ± 1 kg/m3
[1]; 303.15 K
  viscosity: 2.566 ± 0.053 mPa·s
  mass density: 798.829 ± 1 kg/m3
[1]; 308.15 K
  viscosity: 2.149 ± 0.044 mPa·s
  mass density: 794.525 ± 1 kg/m3
[1]; 313.15 K
  viscosity: 1.816 ± 0.038 mPa·s
  mass density: 790.127 ± 1 kg/m3
[1]; 318.15 K
  viscosity: 1.548 ± 0.032 mPa·s
  mass density: 785.636 ± 1 kg/m3
[1]; 323.15 K
  viscosity: 1.332 ± 0.028 mPa·s
  mass density: 781.043 ± 1 kg/m3
[2]; 293.15 K
  refractive index: 1.39715 ± 0.00036
[2]; 298.15 K
  refractive index: 1.39497 ± 0.00036
[2]; 303.15 K
  refractive index: 1.39274 ± 0.00036
[2]; 308.15 K
  refractive index: 1.39045 ± 0.00036
[2]; 313.15 K
  refractive index: 1.38803 ± 0.00036
[2]; 318.15 K
  refractive index: 1.38571 ± 0.00036
[2]; 323.15 K
  refractive index: 1.38322 ± 0.00036

## OCCCO [propan-1,3-diol]
[3]; 293.15 K
  viscosity: 52.31 ± 1.2 mPa·s
  mass density: 1053.03 ± 1.3 kg/m3
[3]; 298.15 K
  viscosity: 41.55 ± 0.94 mPa·s
  mass density: 1049.9 ± 1.3 kg/m3
[3]; 303.15 K
  viscosity: 33.22 ± 0.75 mPa·s
  mass density: 1046.77 ± 1.3 kg/m3
[3]; 308.15 K
  viscosity: 26.87 ± 0.61 mPa·s
  mass density: 1043.63 ± 1.3 kg/m3
[3]; 313.15 K
  viscosity: 21.85 ± 0.49 mPa·s
  mass density: 1040.49 ± 1.3 kg/m3
[3]; 318.15 K
  viscosity: 18.12 ± 0.41 mPa·s
  mass density: 1037.33 ± 1.3 kg/m3
[3]; 323.15 K
  viscosity: 15.21 ± 0.34 mPa·s
  mass density: 1034.16 ± 1.3 kg/m3
[4]; 293.15 K
  refractive index: 1.43918 ± 0.00053
[4]; 298.15 K
  refractive index: 1.43783 ± 0.00053
[4]; 303.15 K
  refractive index: 1.43648 ± 0.00053
[4]; 308.15 K
  refractive index: 1.43515 ± 0.00053
[4]; 313.15 K
  refractive index: 1.43382 ± 0.00053
[4]; 318.15 K
  refractive index: 1.4324 ± 0.00053
[4]; 323.15 K
  refractive index: 1.43101 ± 0.00053

## CCC(C)O (centres undefined) [butan-2-ol]
[3]; 293.15 K
  viscosity: 3.76 ± 0.077 mPa·s
  mass density: 807.19 ± 1 kg/m3
[3]; 298.15 K
  viscosity: 3.093 ± 0.064 mPa·s
  mass density: 803.049 ± 1 kg/m3
[3]; 303.15 K
  viscosity: 2.566 ± 0.053 mPa·s
  mass density: 798.829 ± 1 kg/m3
[3]; 308.15 K
  viscosity: 2.149 ± 0.044 mPa·s
  mass density: 794.525 ± 1 kg/m3
[3]; 313.15 K
  viscosity: 1.816 ± 0.038 mPa·s
  mass density: 790.127 ± 1 kg/m3
[3]; 318.15 K
  viscosity: 1.548 ± 0.032 mPa·s
  mass density: 785.636 ± 1 kg/m3
[3]; 323.15 K
  viscosity: 1.332 ± 0.028 mPa·s
  mass density: 781.043 ± 1 kg/m3
[4]; 293.15 K
  refractive index: 1.39715 ± 0.00036
[4]; 298.15 K
  refractive index: 1.39497 ± 0.00036
[4]; 303.15 K
  refractive index: 1.39274 ± 0.00036
[4]; 308.15 K
  refractive index: 1.39045 ± 0.00036
[4]; 313.15 K
  refractive index: 1.38803 ± 0.00036
[4]; 318.15 K
  refractive index: 1.38571 ± 0.00036
[4]; 323.15 K
  refractive index: 1.38322 ± 0.00036

## CC(O)CO (centres undefined) [1,2-propanediol] + CN1CCC[C@H]1c1cccnc1
[1]; 293.15 K
  viscosity: 59.56 ± 1.2 mPa·s
  mass density: 1036.3 ± 1 kg/m3
[1]; 298.15 K
  viscosity: 44.14 ± 0.9 mPa·s
  mass density: 1032.62 ± 1 kg/m3
[1]; 303.15 K
  viscosity: 33.25 ± 0.68 mPa·s
  mass density: 1028.91 ± 1 kg/m3
[1]; 308.15 K
  viscosity: 25.5 ± 0.52 mPa·s
  mass density: 1025.16 ± 1 kg/m3
[1]; 313.15 K
  viscosity: 19.78 ± 0.4 mPa·s
  mass density: 1021.39 ± 1 kg/m3
[1]; 318.15 K
  viscosity: 15.76 ± 0.32 mPa·s
  mass density: 1017.57 ± 1 kg/m3
[1]; 323.15 K
  viscosity: 12.75 ± 0.26 mPa·s
  mass density: 1013.72 ± 1 kg/m3
[2]; 293.15 K
  refractive index: 1.43279 ± 0.00036
[2]; 298.15 K
  refractive index: 1.43111 ± 0.00036
[2]; 303.15 K
  refractive index: 1.42941 ± 0.00036
[2]; 308.15 K
  refractive index: 1.42773 ± 0.00036
[2]; 313.15 K
  refractive index: 1.42601 ± 0.00036
[2]; 318.15 K
  refractive index: 1.42429 ± 0.00036
[2]; 323.15 K
  refractive index: 1.42257 ± 0.00036

## CCCCO [butan-1-ol] + CN1CCC[C@H]1c1cccnc1
[1]; 293.15 K
  viscosity: 2.914 ± 0.06 mPa·s
  mass density: 809.819 ± 1 kg/m3
[1]; 298.15 K
  viscosity: 2.564 ± 0.053 mPa·s
  mass density: 805.995 ± 1 kg/m3
[1]; 303.15 K
  viscosity: 2.258 ± 0.047 mPa·s
  mass density: 802.148 ± 1 kg/m3
[1]; 308.15 K
  viscosity: 1.994 ± 0.041 mPa·s
  mass density: 798.276 ± 1 kg/m3
[1]; 313.15 K
  viscosity: 1.777 ± 0.037 mPa·s
  mass density: 794.372 ± 1 kg/m3
[1]; 318.15 K
  viscosity: 1.589 ± 0.033 mPa·s
  mass density: 790.429 ± 1 kg/m3
[1]; 323.15 K
  viscosity: 1.372 ± 0.029 mPa·s
  mass density: 786.444 ± 1 kg/m3
[2]; 293.15 K
  refractive index: 1.39922 ± 0.00036
[2]; 298.15 K
  refractive index: 1.39719 ± 0.00036
[2]; 303.15 K
  refractive index: 1.39517 ± 0.00036
[2]; 308.15 K
  refractive index: 1.39311 ± 0.00036
[2]; 313.15 K
  refractive index: 1.39102 ± 0.00036
[2]; 318.15 K
  refractive index: 1.38896 ± 0.00036
[2]; 323.15 K
  refractive index: 1.38688 ± 0.00036

## CN1CCC[C@H]1c1cccnc1 [(-)-3-(N-methylpyrrolidino)pyridine]
[3]; 293.15 K
  viscosity: 4.694 ± 0.098 mPa·s
  mass density: 1010.23 ± 1 kg/m3
[3]; 298.15 K
  viscosity: 4.048 ± 0.085 mPa·s
  mass density: 1006.16 ± 1 kg/m3
[3]; 303.15 K
  viscosity: 3.518 ± 0.074 mPa·s
  mass density: 1002.1 ± 1 kg/m3
[3]; 308.15 K
  viscosity: 3.088 ± 0.065 mPa·s
  mass density: 998.055 ± 1 kg/m3
[3]; 313.15 K
  viscosity: 2.758 ± 0.058 mPa·s
  mass density: 994.014 ± 1 kg/m3
[3]; 318.15 K
  viscosity: 2.411 ± 0.051 mPa·s
  mass density: 989.984 ± 1 kg/m3
[3]; 323.15 K
  viscosity: 2.195 ± 0.046 mPa·s
  mass density: 985.962 ± 1 kg/m3
[4]; 293.15 K
  refractive index: 1.52665 ± 0.0004
[4]; 298.15 K
  refractive index: 1.52439 ± 0.0004
[4]; 303.15 K
  refractive index: 1.52214 ± 0.0004
[4]; 308.15 K
  refractive index: 1.51988 ± 0.0004
[4]; 313.15 K
  refractive index: 1.5179 ± 0.0004
[4]; 318.15 K
  refractive index: 1.51592 ± 0.0004
[4]; 323.15 K
  refractive index: 1.51373 ± 0.0004
